This note sets out measurements from ChEMBL document CHEMBL1145154 (J Med Chem, 2005).

Activity calls are given as the source filed them. No cut-off for these calls is given here.

Usually IC50 stands for the concentration at which inhibition is half-maximal. High values mean weaker potency, low ones greater potency.

The test system of one experiment is A2780. Kind of experiment: In vitro cytotoxicity for human ovarian tumor A2780 cells. The experiment is classed as functional, cell-based.
For experiment [1], the system named is Salmon testes DNA. Kind of experiment: Binding affinity towards salmon testes DNA. The experiment is classed as nucleic-acid assay. Particulars: Oncorhynchus gorbuscha.
Experiment [2] relates to Salmon testes DNA. Kind of experiment: Binding affinity towards salmon testes DNA; NA=not applicable. The experiment is classed as nucleic-acid assay. Particulars: Oncorhynchus gorbuscha.

In the case of `c1ccc2c(c1)C1=NCCN1c1ccccc1-2`, the IC50 with A2780 (Homo sapiens, A2780) amounted to 1.56 µM. This molecule also registered a K with Salmon testes DNA [1] of 25600 M⁻¹.

In the experiment with A2780 (Homo sapiens, A2780), `CCCCCCCCCCCC[N+]1=C2c3ccccc3-c3ccccc3N2CC1` yielded an IC50 of 0.087 µM. In the experiment with Salmon testes DNA [1], the K was 129000 M⁻¹.

In the experiment with A2780 (Homo sapiens, A2780), `COc1ccc2c(c[n+](C)c3c4cc5c(cc4ccc23)OCO5)c1OC` [CHELERYTHRINE CHLORIDE] displayed an IC50 of 4.63 µM. In addition, the K with Salmon testes DNA [1] came to 466000 M⁻¹.

For CARBOPLATIN [listing 1 of 2 here], the IC50 in the experiment with A2780 (a2780) stood at 5.22 µM.

`COc1ccc(C[N+]2=C3c4ccccc4-c4ccccc4N3CC2)cc1`: the IC50 with A2780 (Homo sapiens, A2780) was 1.53 µM. Moreover, the K in the experiment with Salmon testes DNA [1] turned out to be 28900 M⁻¹.

On to CARBOPLATIN [listing 2 of 2 here], for which, in the experiment with Salmon testes DNA [2], the K entry was “inactive”.

The molecule `OCC[N+]1=C2c3ccccc3-c3ccccc3N2CC1` gave an IC50 in the experiment with A2780 (Homo sapiens, A2780) of 11.7 µM. This molecule also yielded a K in the experiment on Salmon testes DNA [1] of 20200 M⁻¹.
